Values quoted from earlier work in patent US20180008675A1, “USE OF URODILATING FOR PREPARING A MEDICAMENT FOR TREATMENT OF CARDIOVASCULAR, RENAL, PULMONARY, AND NEURONAL SYNDROMES WHILE AVOIDING A REBOUND” (CARDIORENTIS AG, priority 2010, published 2018).

Tests used:
[1] = tested on: patients with chronic congestive heart failure / acute decompensated heart failure
[2] = tested on: patients with chronic congestive heart failure; conditions: 10-hour infusion, 15 ng/kg/min
[3] = tested on: dogs; conditions: dogs (Riegger et al., 1990)

urodilatin
changes of the cardiac index (CI) ([1]; 15 and 30 ng/kg/min (Mitrovic et al., 2006)): significant increase | changes of the baseline in pulmonary capillary wedge pressure (PCWP) ([1]; 15 and 30 ng/kg/min, compared with the placebo group (Mitrovic et al., 2006)): significant reductions | pulmonary capillary wedge pressure (PCWP), loss of effect during infusion ([1]; after 6 to 8 hours of infusion (Mitrovic et al., 2006, FIG. 2A)): slight increase of PCWP | cardiac index (CI), loss of effect during infusion ([1]; after 6 to 8 hours of infusion (Mitrovic et al., 2006, FIG. 2C)): partial drop of CI | symptoms, morbidity and mortality ([1]; all doses, acute decompensated heart failure (Mitrovic et al., 2005 and 2006)): significantly improved | central venous pressure (CVP) ([2]; NYHA III chronic congestive heart failure (Eisner et al., 1995)): increases slightly already after 5 hours of infusion | urine flow ([2]; chronic congestive heart failure (Eisner et al., 1995)): loss of action after 8 hours of infusion | effect compared to other natriuretic peptides, such as ANP [3]: better effect in dogs
